Results on ten molecules are retold here after ChEMBL document CHEMBL1146712, “Synthesis and biological evaluation of [4-(2-phenylethenesulfonylmethyl)phenyl]-quinazolin-4-yl-amines as orally active anti-cancer agents” (2004).

The test system of one experiment is MCF7. Put plainly: Concentration required to inhibit growth of human breast (MCF-7) cell line. It is filed as functional.
The subject of experiment [1] is Mus musculus. Put plainly: (§1) Anticancer activity after implantation of HT-29 human adeno carcinoma xenograft in mice at a dose of 300 mg/kg. The class given is functional.
Another experiment deals with U-251. Description: Concentration required to inhibit growth of human CNS (U251) cell line. It is filed as functional.
Experiment [2] deals with Mus musculus. Put plainly: Anticancer activity after implantation of HT-29 human adeno carcinoma xenograft in mice at a dose of 300 mg/kg; 0/6. It is filed as functional.
The next experiment relates to SK-OV-3. Put plainly: Concentration required to inhibit growth of human ovarian (SK-OV3) cell line. It is filed as functional.
The test system of experiment [3] is Mus musculus. Described as §1. It is filed as functional. Details: reference not given here.
For a further experiment, the system named is UACC-62. Description: Concentration required to inhibit growth of human melanoma (UACC62) cell line. The class given is functional.
In a further experiment the test system is SW-620. Description: Concentration required to inhibit growth of human colon (SW620) cell line. It is filed as functional.
A further experiment deals with OVCAR-8. Put plainly: Concentration required to inhibit growth of human ovarian (OVCAR8) cell line. The class given is functional.
Another experiment deals with HT-29. Description: Concentration required to inhibit growth of human colon (HT-29) cell line. It is filed as functional.
The subject of another experiment is NCI-H522 (Homo sapiens). Description: Concentration required to inhibit growth of human lung (H522) cell line.
The test system of another experiment is PC-3. Put plainly: Concentration required to inhibit growth of human prostate (PC3) cell line. The class given is functional.
A further experiment deals with DU-145. Put plainly: In vitro inhibition of DU145 (human prostate cancer) cell growth. The class given is functional.
Another experiment concerns ACHN. Description: Concentration required to inhibit growth of human renal (ACHN) cell line. It is filed as functional.
In experiment [4] the test system is Mus musculus. Put plainly: Anticancer activity after implantation of HT-29 human adeno carcinoma xenograft in mice at a dose of 300 mg/kg; 1/6. It is filed as functional.
In another experiment the test system is NCI/ADR-RES. Description: in vitro inhibition of MCF-7/ADR (human breast cancer) cell growth. The class given is functional.

As for `O=S(=O)(/C=C/c1ccc(F)cc1)Cc1ccc(Nc2ncnc3ccccc23)cc1`, the GI50 was 16 µM with MCF7; 0.01 µM in the experiment with U-251; 2 µM with SK-OV-3; 5 µM with UACC-62; 100 µM in the experiment on SW-620; 2 µM in the experiment on OVCAR-8. Further, the GI50 in the experiment with HT-29 was determined as 1 µM; with NCI-H522 (Homo sapiens), 13 µM; in the experiment on PC-3, 1 µM; with DU-145, 0.3 µM; in the experiment on ACHN, 0.01 µM. This molecule also had an inhibition in vivo at 300 mg/kg in the experiment on Mus musculus [1] of 84%. Besides, the Mortality in the experiment with Mus musculus [2] was 0. Further, the Mean body weight with Mus musculus [3] was 5%.
For the molecule `O=S(=O)(/C=C/c1ccc(Cl)cc1Cl)Cc1ccc(Nc2ncnc3ccc(Br)cc23)cc1`, the GI50 is 4 µM with MCF7; 4 µM in the experiment with U-251; 1 µM in the experiment with SK-OV-3; 2 µM in the experiment with UACC-62; > 100 µM with SW-620; > 100 µM in the experiment with NCI/ADR-RES. For the same molecule, the GI50 in the experiment with OVCAR-8 worked out at 3 µM; in the experiment on HT-29, 28 µM; in the experiment on NCI-H522 (Homo sapiens) it was 8 µM; in the experiment with PC-3, 4 µM; with DU-145, 2 µM; in the experiment on ACHN, 0.1 µM. In the experiment on Mus musculus [1], this molecule displayed an inhibition in vivo at 300 mg/kg of 22%. This molecule displayed a Mortality in the experiment on Mus musculus [4] of 1. In addition, the Mean body weight with Mus musculus [3] is 4%.
Regarding `O=S(=O)(/C=C/c1ccc(Cl)cc1Cl)Cc1ccc(Nc2ncnc3ccccc23)cc1`, the GI50 in the experiment with MCF7 is 4 µM; in the experiment on U-251, 4 µM; in the experiment with SK-OV-3, 2 µM; in the experiment with UACC-62, 2 µM; in the experiment on SW-620, 14 µM; in the experiment on NCI/ADR-RES, 5 µM. The GI50 came out at 4 µM in the experiment on OVCAR-8; 24 µM in the experiment on HT-29; 12 µM in the experiment on NCI-H522 (Homo sapiens); 19 µM in the experiment on PC-3; 3 µM in the experiment on DU-145; 0.1 µM with ACHN. In the experiment on Mus musculus [1], the inhibition in vivo at 300 mg/kg came to 22%. Moreover, the Mortality in the experiment on Mus musculus [2] came out at 0. This molecule also had a Mean body weight with Mus musculus [3] of 7%.
With `O=S(=O)(/C=C/c1ccc(C(F)(F)F)cc1F)Cc1ccc(Nc2ncnc3cc(Cl)ccc23)cc1`, the GI50 in the experiment on MCF7, with U-251, with SK-OV-3, in the experiment on UACC-62, in the experiment on SW-620 and with NCI/ADR-RES was > 100 µM in each case. The GI50 in the experiment with OVCAR-8, in the experiment on HT-29, in the experiment with NCI-H522 (Homo sapiens), with PC-3, in the experiment with DU-145 and in the experiment on ACHN was > 100 µM each time.
As for `O=S(=O)(/C=C/c1ccc(Br)cc1)Cc1ccc(Nc2ncnc3ccccc23)cc1`, the GI50 with MCF7 was 91 µM; with U-251 it was > 100 µM; in the experiment with SK-OV-3, 1 µM; with UACC-62 it was > 100 µM; in the experiment with SW-620 it was > 100 µM; in the experiment on NCI/ADR-RES it was > 100 µM. The GI50 with OVCAR-8 was 38 µM; in the experiment on HT-29 it was > 100 µM; in the experiment with NCI-H522 (Homo sapiens) it was > 100 µM; in the experiment with PC-3, 42 µM; with DU-145, 55 µM; in the experiment on ACHN it was 0.2 µM.
Consider `COc1cc2ncnc(Nc3ccc(CS(=O)(=O)/C=C/c4ccc(Cl)cc4Cl)cc3)c2cc1OC`, for which the GI50 in the experiment on MCF7 amounted to 11 µM; with U-251 it was 13 µM; with SK-OV-3, 2 µM; in the experiment with UACC-62, 21 µM; in the experiment with SW-620 it was 2 µM; in the experiment on NCI/ADR-RES, 24 µM. In addition, the GI50 in the experiment with OVCAR-8 is 2 µM; in the experiment with HT-29, 6 µM; with NCI-H522 (Homo sapiens) it was 6 µM; in the experiment with PC-3, 5 µM; in the experiment on DU-145 it was 1.4 µM; with ACHN, 15 µM. Also, testing at 300 mg/kg in the experiment on Mus musculus [1] gave an inhibition in vivo of 68%. The Mortality with Mus musculus [2] was 0. In the experiment on Mus musculus [3], this molecule had a Mean body weight of 12%.
Regarding `O=S(=O)(/C=C/c1ccc(F)cc1F)Cc1ccc(Nc2ncnc3cc(Cl)ccc23)cc1`, the GI50 in the experiment with MCF7, in the experiment on U-251, with SK-OV-3, in the experiment on UACC-62, in the experiment on SW-620 and in the experiment on NCI/ADR-RES was > 100 µM in each case. Besides, the GI50 in the experiment with OVCAR-8, in the experiment with HT-29, in the experiment with NCI-H522 (Homo sapiens), with PC-3, in the experiment on DU-145 and in the experiment on ACHN was > 100 µM each time.
`N#Cc1ccc(/C=C/S(=O)(=O)Cc2ccc(Nc3ncnc4ccccc34)cc2)cc1`: the GI50 in the experiment with MCF7, in the experiment on U-251, in the experiment on SK-OV-3, in the experiment with UACC-62, in the experiment on SW-620 and in the experiment on NCI/ADR-RES was > 100 µM throughout. Also, the GI50 in the experiment with OVCAR-8, in the experiment on HT-29, in the experiment on NCI-H522 (Homo sapiens), with PC-3, in the experiment with DU-145 and in the experiment with ACHN was > 100 µM in each case.
`COc1cc2ncnc(Nc3ccc(CS(=O)(=O)/C=C/c4ccc(F)cc4)cc3)c2cc1OCCCN1CCOCC1`: the GI50 in the experiment with MCF7 was 3 µM; with U-251, 18 µM; in the experiment on SK-OV-3, > 100 µM; with UACC-62 it was 55 µM; in the experiment on SW-620, > 100 µM; with NCI/ADR-RES, 3 µM. Also, the GI50 in the experiment with OVCAR-8 is > 100 µM; in the experiment with HT-29 it was > 100 µM; with NCI-H522 (Homo sapiens), > 100 µM; in the experiment on PC-3 it was 28 µM; in the experiment on DU-145, 4 µM; in the experiment on ACHN, 0.2 µM.
For the molecule `O=S(=O)(/C=C/c1ccc(Cl)cc1)Cc1ccc(Nc2ncnc3ccccc23)cc1`, the GI50 in the experiment with MCF7 was 52 µM; with U-251, 49 µM; with SK-OV-3, 54 µM; with UACC-62, 13 µM; in the experiment with SW-620 it was 77 µM; with NCI/ADR-RES, > 100 µM. The GI50 in the experiment on OVCAR-8 was > 100 µM; in the experiment on HT-29 it was 73 µM; in the experiment with NCI-H522 (Homo sapiens) it was 46 µM; with PC-3, 43 µM; with DU-145 it was > 100 µM; in the experiment on ACHN it was > 100 µM.
